Measured values: patent publication US20030125264A1, “Methods For Treating Wounds” (Kimberly-Clark Worldwide, Inc., priority 2001, published 2003)

System: human foreskin fibroblasts (ATCC cell line CRL-2522)
Assay: proliferative response of human skin fibroblasts to flavonoids (96-well, Cell Titer 96 Aqueous One, absorbance 490 nm)
Type: cell-based
Conditions: for difference in cell proliferation between controls and test compound (one-way ANOVA): P<0.01 and 0.05, vehicle control 0.1% DMSO in DMEM, n=6; for cell proliferating effect on human skin fibroblasts: at lower concentrations (samples tested at 10^-4, 10^-5 and 10^-6 M; 28 hours, serum-free DMEM, 0.1% DMSO, n=6)
Protocol: The proliferative response of flavonoids to the human skin fibroblast cell line (ATCC, Manassas, Va., cell line CRL-2522 human foreskin fibroblast) was determined in a 96-well assay system using serum-free medium as a control. Stock solutions of flavonoids were prepared as 1.0 mole/L solutions in Dimethyl sulfoxide (DMSO, Sigma Chemical Company, St. Louis, Mo.) then diluted with Dulbecco's Modified Eagle's Medium (DMEM, Sigma Chemical Co., St. Louis, Mo.) to 10^−4, 10^−5, and 10^−6 M solutions with a final DMSO concentration of 0.1% (v:v). Cells were seeded into 96 well plates at a concentration of 2×10^3 cells in 100 μl of DMEM containing 10% fetal bovine serum (FBS, Sigma Chemical Co., St. Louis, Mo.). Plates were incubated for 24 hours at 37° C. in a humidified, 5% CO2 atmosphere. After incubation, the medium was aspirated and the wells were rinsed twice with 100 μl of serum-free DMEM. The final rinse was aspirated and 100 μl of the 10^−4-10^−6 M of each solution was added to 6 wells. In addition, 100 μl of vehicle (serum free DMEM with DMSO at 0.1% v:v) was added to 6 wells as control. In addition, duplicate wells of each test and control solution were placed in wells without the human fibroblast cells to serve as blanks for each treatment. All wells were incubated for 28 hours at 37° C. in a humidified, 5% CO2 atmosphere. After incubation, 20 μl of Cell Titer 96 Aqueous One Solution Reagent (Promega, Corp., Madison, Wis.) was added to all wells. The plates were swirled gently and place back in the incubator for 45 minutes and spectrophotometric absorbance was read at 490 nm. Absorbance of the wells without cells was subtracted from the absorbance of the wells with cells to give the true absorbance. Various compounds of present invention were tested for their cell proliferating effect on human skin fibroblasts. The effect of flavonoids naringin and quercetin on cell proliferation in human foreskin fibroblasts (ATCC cell line CRL-2522) was measured and data is presented in FIG. 1. The control and all test materials contained a final concentration of 0.1% DMSO in DMEM with n=6. Sample concentrations were 10^−4, 10^−5 and 10^−6 M. Statistical analysis was done by using one-way ANOVA.

SMILES: C[C@@H]1O[C@@H](O[C@H]2[C@H](Oc3cc(O)c4c(c3)O[C@H](c3ccc(O)cc3)CC4=O)O[C@H](CO)[C@@H](O)[C@@H]2O)[C@H](O)[C@H](O)[C@H]1O [naringin]
- difference in cell proliferation between controls and test compound (one-way ANOVA): Statistically significant difference
- cell proliferating effect on human skin fibroblasts: good cell proliferating agents

SMILES: O=c1c(O)c(-c2ccc(O)c(O)c2)oc2cc(O)cc(O)c12 [quercetin]
- difference in cell proliferation between controls and test compound (one-way ANOVA): Statistically significant difference
- cell growth relative to the control (at higher concentrations (samples tested at 10^-4, 10^-5 and 10^-6 M; 28 hours, serum-free DMEM, 0.1% DMSO, n=6)): appears to show cell inhibition
- cell proliferating effect on human skin fibroblasts: good cell proliferating agents
